Data published in patent publication US20020137929A1, “1 - (3-heterocyclylphenyl) isothiourea, -isourea, -guanidine and -amidine herbicidal agents” (Intellectual Property Department, BASF Aktiengesellschaft, priority 1998, published 2002).

Assays:
ABUTH (Velvetleaf) = assay: Postemergence herbicidal evaluation; format: in vivo, Abutilon theophrasti; conditions: postemergence
Procedure, shortened: (§1)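 Seedlings grown about two weeks were sprayed at 40 psi with compound dispersed in 50/50 acetone/water plus 0.5% TWEEN 20, at about 0.0156 to 0.500 kg/ha. Plants were kept in the greenhouse and scored 4–5 weeks later on a 0–9 visual scale against untreated controls.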

[1] = tested on: CHEAL (Lambsquarters, Common); assay: Preemergence herbicidal evaluation; format: in vivo, Chenopodium album; conditions: rated 4-5 weeks after treatment
Procedure, shortened: (§2)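 Each species is sown separately in potting soil over roughly an inch of soil before any emergence. The soil surface then receives an aqueous acetone spray delivering about 0.0156 to 0.500 kg/ha of compound. After four to five weeks, injury is scored from 0 to 9 relative to a control.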

AMBEL (Ragweed, Common) [2] = assay: Postemergence herbicidal evaluation; format: in vivo, Ambrosia artemisifolia; conditions: postemergence
Procedure, shortened: as §1

ORYSAT (Rice, Tebonnet) = assay: Postemergence herbicidal evaluation; format: in vivo, Oryza sativa, (L.) Tebonnet; conditions: postemergence
Procedure, shortened: as §1

[3] = tested on: GLXMAW (Soybean, Williams); assay: Postemergence herbicidal evaluation; format: in vivo, Glycine max, (L.) Merr. cv Williams; conditions: postemergence
Procedure, shortened: as §1

ZEAMX (Corn, Field) = assay: Postemergence herbicidal evaluation; format: in vivo, Zea mays; conditions: postemergence
Procedure, shortened: as §1

[4] = tested on: CHEAL (Lambsquarters, Common); assay: Postemergence herbicidal evaluation; format: in vivo, Chenopodium album; conditions: postemergence
Procedure, shortened: as §1

GALAP (Galium) = assay: Preemergence herbicidal evaluation; format: in vivo, Galium aparine; conditions: rated 4-5 weeks after treatment
Procedure, shortened: as §2

AMBEL (Ragweed, Common) [5] = assay: Preemergence herbicidal evaluation; format: in vivo, Ambrosia artemisifolia; conditions: rated 4-5 weeks after treatment
Text: Results of herbicide evaluation are expressed on a rating scale (0-9). The scale is based upon a visual observation of plant stand, vigor, malformation, size, chlorosis and overall plant appearance as compared with a control.
The preemergence herbicidal activity of the test compounds of the present invention is exemplified by the following tests in which the seeds of a variety of monocotyledonous and dicotyledonous plants are separately mixed with potting soil and planted on top of approximately one inch of soil in separate pint cups. After planting, the cups are sprayed with the selected aqueous acetone solution containing test compound in sufficient quantity to provide the equivalent of about 0.0156 to 0.500 kg per hectare of test compound per cup. The treated cups are then placed on greenhouse benches, watered and cared for in accordance with conventional greenhouse procedures. From four to five weeks after treatment, the tests are terminated and each cup is examined and rated according to the rating system provided in Example 37.
The compounds evaluated are reported by compound number given in Example 37.

CASOB (Sicklepod) = assay: Preemergence herbicidal evaluation; format: in vivo, Cassia obtusifolia; conditions: rated 4-5 weeks after treatment
Procedure, shortened: as §2

ECHCG (Barnyardgrass) = assay: Postemergence herbicidal evaluation; format: in vivo, Echinochloa crus-galli; conditions: postemergence
Procedure, shortened: as §1

CYPSE (Flatsedge) = assay: Preemergence weed control under flooded paddy conditions; format: in vivo, Cyperus serotinus; conditions: 0.2500 kg/ha, rated 3-4 weeks after treatment
Procedure, shortened: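 Greenhouse paddy assay. Acetone/water (50/50 v/v) solutions dosed into flood water, equivalent to about 0.0313 to 0.500 kg/ha active ingredient, over seeds planted 0.5 cm deep in silt loam. Score: 0-9 visual, based on stand, vigor, malformation, size and chlorosis, 3 to 4 weeks after treatment.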

[6] = rate 0.0313 kg/ha, rating scale 0-9
[7] = rate 0.0625 kg/ha, rating scale 0-9
[8] = rate 0.1250 kg/ha, rating scale 0-9
[9] = rate 0.2500 kg/ha, rating scale 0-9

CSCCN1C(=O)CSC1=Nc1cc(-n2c(=O)cc(C(F)(F)F)n(C)c2=O)c(F)cc1Cl [Compound 157]
7.0: herbicidal rating ABUTH (ABUTH (Velvetleaf); rate 0.0156 kg/ha) | herbicidal rating ZEAMX (ZEAMX (Corn, Field); rate 0.0156 kg/ha) | herbicidal rating ZEAMX (ZEAMX (Corn, Field); rate 0.0313 kg/ha) | herbicidal rating ZEAMX (ZEAMX (Corn, Field); rate 0.0625 kg/ha)
2.0: herbicidal rating AMBEL (AMBEL (Ragweed, Common) [2]; rate 0.0156 kg/ha) | herbicidal rating AMBEL (AMBEL (Ragweed, Common) [2]; rate 0.0313 kg/ha) | herbicidal rating ORYSAT (ORYSAT (Rice, Tebonnet); rate 0.0156 kg/ha) | herbicidal rating CHEAL ([4]; rate 0.0156 kg/ha) | herbicidal rating ECHCG (ECHCG (Barnyardgrass); rate 0.0625 kg/ha)
9.0: herbicidal rating ABUTH (ABUTH (Velvetleaf); rate 0.0313 kg/ha) | herbicidal rating ABUTH (ABUTH (Velvetleaf); rate 0.0625 kg/ha) | Preemergence herbicidal rating CHEAL [1, 8] | Preemergence herbicidal rating CHEAL [1, 9] | herbicidal rating CHEAL ([4]; rate 0.0625 kg/ha)
4.5: herbicidal rating GLXMAW ([3]; rate 0.0156 kg/ha)
7.5: herbicidal rating GLXMAW ([3]; rate 0.0625 kg/ha)
5.0: herbicidal rating AMBEL (AMBEL (Ragweed, Common) [2]; rate 0.0625 kg/ha) | herbicidal rating GLXMAW ([3]; rate 0.0313 kg/ha) | Preemergence herbicidal rating CASOB (CASOB (Sicklepod); [9])
3.0: herbicidal rating ORYSAT (ORYSAT (Rice, Tebonnet); rate 0.0625 kg/ha)
0.0: Preemergence herbicidal rating CHEAL [1, 7] | Preemergence herbicidal rating GALAP (GALAP (Galium); [6]) | Preemergence herbicidal rating GALAP (GALAP (Galium); [7]) | Preemergence herbicidal rating GALAP (GALAP (Galium); [8]) | Preemergence herbicidal rating AMBEL (AMBEL (Ragweed, Common) [5]; [6]) | Preemergence herbicidal rating AMBEL (AMBEL (Ragweed, Common) [5]; [7]) | Preemergence herbicidal rating AMBEL (AMBEL (Ragweed, Common) [5]; [8]) | Preemergence herbicidal rating CASOB (CASOB (Sicklepod); [7]) | herbicidal rating ECHCG (ECHCG (Barnyardgrass); rate 0.0156 kg/ha)
4.0: herbicidal rating CHEAL ([4]; rate 0.0313 kg/ha) | Preemergence herbicidal rating GALAP (GALAP (Galium); [9])
1.0: Preemergence herbicidal rating CHEAL [1, 6] | Preemergence herbicidal rating AMBEL (AMBEL (Ragweed, Common) [5]; [9]) | Preemergence herbicidal rating CASOB (CASOB (Sicklepod); [6]) | Preemergence herbicidal rating CASOB (CASOB (Sicklepod); [8]) | herbicidal rating ECHCG (ECHCG (Barnyardgrass); rate 0.0313 kg/ha)
2.5: herbicidal rating ORYSAT (ORYSAT (Rice, Tebonnet); rate 0.0313 kg/ha)

Cn1c(C(F)(F)F)cc(=O)n(-c2cc(N=C3SCC(=O)N3Cc3ccco3)c(Cl)cc2F)c1=O [Compound 122, 3-{4-Chloro-2-fluoro-5-[(3-furfuryl-4-oxo-2-thiazolidinylidene)amino]phenyl}-1-methyl-6-(trifluoromethyl)-2,4(1H,3H)-pyrimidinedione]
2.0: Preemergence herbicidal rating GALAP (GALAP (Galium); rate 0.0313 kg/ha) | Preemergence herbicidal rating AMBEL (AMBEL (Ragweed, Common) [5]; rate 0.1250 kg/ha) | Preemergence herbicidal rating AMBEL (AMBEL (Ragweed, Common) [5]; rate 0.2500 kg/ha) | herbicidal rating ECHCG (ECHCG (Barnyardgrass); rate 0.0156 kg/ha)
5.0: herbicidal rating ORYSAT (ORYSAT (Rice, Tebonnet); rate 0.1250 kg/ha) | herbicidal rating ECHCG (ECHCG (Barnyardgrass); rate 0.1250 kg/ha)
6.5: herbicidal rating GLXMAW ([3]; rate 0.0313 kg/ha) | herbicidal rating GLXMAW ([3]; rate 0.0625 kg/ha) | herbicidal rating GLXMAW ([3]; rate 0.1250 kg/ha)
3.5: herbicidal rating ORYSAT (ORYSAT (Rice, Tebonnet); rate 0.0156 kg/ha) | herbicidal rating ORYSAT (ORYSAT (Rice, Tebonnet); rate 0.0313 kg/ha) | herbicidal rating ORYSAT (ORYSAT (Rice, Tebonnet); rate 0.0625 kg/ha)
4.5: herbicidal rating ZEAMX (ZEAMX (Corn, Field); rate 0.0156 kg/ha)
9.0: herbicidal rating ABUTH (ABUTH (Velvetleaf); rate 0.0156 kg/ha) | herbicidal rating ABUTH (ABUTH (Velvetleaf); rate 0.0313 kg/ha) | herbicidal rating ABUTH (ABUTH (Velvetleaf); rate 0.0625 kg/ha) | herbicidal rating ABUTH (ABUTH (Velvetleaf); rate 0.1250 kg/ha) | Preemergence herbicidal rating CHEAL ([1]; rate 0.0156 kg/ha) | Preemergence herbicidal rating CHEAL ([1]; rate 0.0313 kg/ha) | Preemergence herbicidal rating CHEAL ([1]; rate 0.1250 kg/ha) | Preemergence herbicidal rating CHEAL ([1]; rate 0.2500 kg/ha) | Preemergence herbicidal rating CHEAL ([1]; rate 0.5000 kg/ha) | herbicidal rating AMBEL (AMBEL (Ragweed, Common) [2]; rate 0.0313 kg/ha) | herbicidal rating AMBEL (AMBEL (Ragweed, Common) [2]; rate 0.0625 kg/ha) | herbicidal rating AMBEL (AMBEL (Ragweed, Common) [2]; rate 0.1250 kg/ha) | herbicidal rating CHEAL ([4]; rate 0.0313 kg/ha) | herbicidal rating CHEAL ([4]; rate 0.0625 kg/ha) | herbicidal rating CHEAL ([4]; rate 0.1250 kg/ha)
4.0: Preemergence herbicidal rating GALAP (GALAP (Galium); rate 0.1250 kg/ha) | Preemergence herbicidal rating GALAP (GALAP (Galium); rate 0.2500 kg/ha) | herbicidal rating ECHCG (ECHCG (Barnyardgrass); rate 0.0625 kg/ha)
7.0: Preemergence herbicidal rating CHEAL ([1]; rate 0.0625 kg/ha) | herbicidal rating AMBEL (AMBEL (Ragweed, Common) [2]; rate 0.0156 kg/ha) | herbicidal rating ZEAMX (ZEAMX (Corn, Field); rate 0.0313 kg/ha) | herbicidal rating ZEAMX (ZEAMX (Corn, Field); rate 0.0625 kg/ha) | herbicidal rating ZEAMX (ZEAMX (Corn, Field); rate 0.1250 kg/ha)
6.0: herbicidal rating CHEAL ([4]; rate 0.0156 kg/ha) | Preemergence herbicidal rating GALAP (GALAP (Galium); rate 0.5000 kg/ha)
5.5: herbicidal rating GLXMAW ([3]; rate 0.0156 kg/ha)
3.0: herbicidal effect rating, CYPSE (CYPSE (Flatsedge)) | Preemergence herbicidal rating GALAP (GALAP (Galium); rate 0.0156 kg/ha) | Preemergence herbicidal rating GALAP (GALAP (Galium); rate 0.0625 kg/ha) | Preemergence herbicidal rating AMBEL (AMBEL (Ragweed, Common) [5]; rate 0.5000 kg/ha) | Preemergence herbicidal rating CASOB (CASOB (Sicklepod); rate 0.5000 kg/ha) | herbicidal rating ECHCG (ECHCG (Barnyardgrass); rate 0.0313 kg/ha)
0.0: Preemergence herbicidal rating AMBEL (AMBEL (Ragweed, Common) [5]; rate 0.0156 kg/ha) | Preemergence herbicidal rating AMBEL (AMBEL (Ragweed, Common) [5]; rate 0.0313 kg/ha) | Preemergence herbicidal rating AMBEL (AMBEL (Ragweed, Common) [5]; rate 0.0625 kg/ha) | Preemergence herbicidal rating CASOB (CASOB (Sicklepod); rate 0.0156 kg/ha) | Preemergence herbicidal rating CASOB (CASOB (Sicklepod); rate 0.0313 kg/ha) | Preemergence herbicidal rating CASOB (CASOB (Sicklepod); rate 0.0625 kg/ha) | Preemergence herbicidal rating CASOB (CASOB (Sicklepod); rate 0.1250 kg/ha) | Preemergence herbicidal rating CASOB (CASOB (Sicklepod); rate 0.2500 kg/ha)
